Experimental data taken from patent US20210113540A1, “TREATMENT AGENT AND PHARMACEUTICAL COMPOSITION FOR GLIOMA” (NATIONAL UNIVERSITY CORPORATION HOKKAIDO UNIVERSITY, priority 2018, published 2021).

What was measured:
Assay type in all cases: cell-based, human
SOX2 in GICs (E6) = experiment: SOX2 immunostaining, SOX2/DAPI positive rate in GICs (E6); settings: 20 μmol/L OSMI-1, cultured 2 days; control 71±2%
Method: (§1) The extranuclear elimination of compound 8-dependent SOX2 is dependent on the extranuclear transport factor, Exportin (also known as CRM1). The cells were cultured for one day in the presence of Compound 8 (10 μM) and a CRM1-specific inhibitor leptomycin B (LMB, 150 nM), and GICs were immunostained with the SOX2 antibody. As a result, the SOX2/DAPI positive rate in GICs (E6) was as follows: Control: 95±2%, supplemented with Compound 8: 7±3%, supplemented with Compound 8+LMB: 87±9%; the SOX2/DAPI positive rate in GICs (E16) was as follows: Control: 72±11%, supplemented with compound 8: 0.5±1%, supplemented with Compound 8+LMB: 81±10%. The addition of LMB suppressed Compound 8-dependent extranuclear elimination of SOX2.
(§2) When UDP-GlcNAc was added after the chemical was added to GIC, reduced SOX2 expression in GICs and the cytotoxic activity of Compound 8 on GICs were neutralized (FIGS. 3 and 4). SOX2 K75A in which lysine 75 involved in the binding of CRM1 and SOX2 was substituted with alanine and SOX2 S248A in which the 0-GlcNAcylation target serine 248 was substituted with alanine were prepared, thereby establishing GICs that constitutively express these SOX2 mutants and wild-type SOX2 (SOX2 wt). After treatment with Compound 8, the localization of SOX2 was examined by immunostaining using an anti-FLAG antibody, and the viability of GICs expressing these mutants was examined by MTT assay (FIG. 5). In the presence of Compound 8, SOX2 K75A was present in the nucleus and partially neutralized the cytotoxic activity of Compound 8. SOX2 S248A was not retained in the nucleus by treatment with Compound 8, and no inhibitory effect on cytotoxic activity was observed. […] The SOX2/DAPI positive rate was as follows: GIC (E6): Control: 0%, SOX2 wt: 36±5%, SOX2 K75A: 63±5%, SOX2 S248A: 18±2%; GIC (E16): Control: 0%, SOX2 wt: 22±4%, SOX2 K75A: 58±6%, SOX2 S248A: 15±3%. Error bar: ±SD. Statistical processing is t-test. *P<0.05, **P<0.01, ***P<0.001. GIC was cultured for 2 days with Compound 8 (10 μmol/L) alone or together with UDP-GlcNAc (1 mmol/L), and immunostaining was performed for SOX2 and NESTIN. As a result, the addition of UDP-GlcNAc suppressed Compound 8-dependent extranuclear elimination of SOX2.
(§3) OSMI-1, which is an O-GlcNAc transferase (OGT)-specific inhibitor, suppresses GIC growth and SOX2 expression. (A) GICs were cultured for 3 days in the presence of various concentrations of OSMI-1, and cell growth was examined using MTT assay (FIG. 6). (B) The results of immunostaining for SOX2 and NESTIN using GICs cultured for 2 days in the presence of 20 μmol/L OSMI-1 and calculating the SOX2 positive rate (SOX2/DAPI) are shown below.

SOX2 in GICs (E16) = experiment: SOX2 immunostaining, SOX2/DAPI positive rate in GICs (E16); settings: 20 μmol/L OSMI-1, cultured 2 days; control 65±5%
Method: as §1, §2, §3

GICs = experiment: GIC growth in the presence of OSMI-1 (MTT assay); settings: cultured 3 days, various concentrations of OSMI-1, FIG. 6
Method: as §3

COc1ccccc1[C@@H](NS(=O)(=O)c1ccc2[nH]c(=O)ccc2c1)C(=O)N(Cc1ccco1)Cc1cccs1 [OSMI-1, reference compound]
SOX2 positive rate (SOX2/DAPI), GIC (E6) (SOX2 in GICs (E6)): 32±4%
SOX2 positive rate (SOX2/DAPI), GIC (E16) (SOX2 in GICs (E16)): 30±5%
GIC growth (GICs): suppresses
